Measured values from patent publication US20240174618A1, “SUBSTITUTED (2-HETEROARYLOXYPHENYL)SULFONATES, SALTS THEREOF AND THEIR USE AS HERBICIDAL AGENTS” (Bayer Aktiengesellschaft, priority 2021, published 2024).

How the values were obtained:
Type in all cases: in vivo
[1] = test system: Digitaria sanguinalis (DIGSA); test: A. Herbicidal pre-emergence efficacy, DIGSA; conditions: scored visually after about 3 weeks vs untreated controls
Description: (§1) Seeds of mono- and dicotyledonous weed plants were placed in plastic pots in sandy loam soil (doubly sown with one species each of mono- or dicotyledonous weed plants per pot) and covered with soil. The compounds of the invention, formulated in the form of wettable powders (WP) or as emulsion concentrates (EC), were then applied onto the surface of the covering soil as aqueous suspension or emulsion with addition of 0.5% additive at a water application rate of 600 liters per hectare (converted). After the treatment, the pots were placed in a greenhouse and kept under good growth conditions for the test plants. After about 3 weeks, the efficacy of the preparations was scored visually in comparison with untreated controls as percentages.
(§2) For example, • 100% efficacy=plants have died, • 0% efficacy=like untreated control plants.
(§3) Tables A1a to A12c below show the effects of selected compounds of the general formula (I) according to table 1 on various harmful plants at an application rate corresponding to 1280 g/ha or less, which were obtained by the experimental procedure mentioned above.

Poa annua (POAAN) [2] = test: A. Herbicidal pre-emergence efficacy, POAAN
Description: as §1, §2, §3

Poa annua (POAAN) [3] = test: B. Herbicidal post-emergence efficacy, POAAN; conditions: 1280 g/ha
Protocol: (§4) Seeds of mono- and dicotyledonous weed plants were placed in plastic pots in sandy loam soil (doubly sown with in each case one species of mono- or dicotyledonous weed plants per pot), covered with soil and cultivated in a greenhouse under controlled growth conditions. 2 to 3 weeks after sowing, the test plants were treated at the one-leaf stage. The compounds of the invention, formulated in the form of wettable powders (WP) or as emulsion concentrates (EC), were applied onto the green parts of the plants as aqueous suspension or emulsion with addition of 0.5% additive at a water application rate of 600 liters per hectare (converted). After the test plants had been kept in the greenhouse under optimum growth conditions for about 3 weeks, the activity of the preparations was rated visually in comparison to untreated controls.
(§5) For example, • 100% efficacy=plants have died, • 0% efficacy=like untreated control plants
(§6) Tables B1a to B12c below show the effects of selected inventive compounds of the general formula (I) according to table 1 on various harmful plants at an application rate corresponding to 1280 g/ha or less, which were obtained by the experimental procedure mentioned above.

Lolium rigidum (LOLRI) = test: A. Herbicidal pre-emergence efficacy, LOLRI; conditions: dosage 1280 g/ha
Description: as §1, §2, §3

Setaria viridis (SETVI) [4] = test: A. Herbicidal pre-emergence efficacy, SETVI
Description: as §1, §2, §3

[5] = test system: Matricaria inodora (MATIN); test: A. Herbicidal pre-emergence efficacy, MATIN
Description: as §1, §2, §3

[6] = test system: Amaranthus retroflexus (AMARE); test: B. Herbicidal post-emergence efficacy, AMARE
Protocol: as §4, §5, §6

[7] = test system: Amaranthus retroflexus (AMARE); test: A. Herbicidal pre-emergence efficacy, AMARE
Description: as §1, §2, §3

Kochia scoparia (KCHSC) [8] = test: A. Herbicidal pre-emergence efficacy, KCHSC; conditions: pre-emergence
Description: as §1, §2, §3

[9] = test system: Abutilon theophrasti (ABUTH); test: A. Herbicidal pre-emergence efficacy, ABUTH; conditions: 1280 g/ha; scored visually after about 3 weeks vs untreated controls
Description: as §1, §2, §3

Veronica persica (VERPE) [10] = test: B. Herbicidal post-emergence efficacy, VERPE
Protocol: as §4, §5, §6

Veronica persica (VERPE) [11] = test: A. Herbicidal pre-emergence efficacy, VERPE
Description: as §1, §2, §3

Stellaria media (STEME) [12] = test: B. Herbicidal post-emergence efficacy, STEME
Protocol: as §4, §5, §6

[13] = test system: Abutilon theophrasti (ABUTH); test: B. Herbicidal post-emergence efficacy, ABUTH; conditions: rated visually after about 3 weeks
Protocol: as §4, §5, §6

[14] = test system: Echinochloa crus-galli (ECHCG); test: A. Herbicidal pre-emergence efficacy, ECHCG; conditions: 1280 g/ha; scored visually after about 3 weeks vs untreated controls
Description: as §1, §2, §3

[15] = test system: Digitaria sanguinalis (DIGSA); test: B. Herbicidal post-emergence efficacy, DIGSA; conditions: rated visually after about 3 weeks
Protocol: as §4, §5, §6

Kochia scoparia (KCHSC) [16] = test: B. Herbicidal post-emergence efficacy, KCHSC; conditions: for Post-emergence efficacy against KCHSC in %: 320 g/ha, rated visually after about 3 weeks; for Post-emergence efficacy against KCHSC: 1280 g/ha
Protocol: as §4, §5, §6

Setaria viridis (SETVI) [17] = test: B. Herbicidal post-emergence efficacy, SETVI; conditions: 1280 g/ha
Protocol: as §4, §5, §6

Stellaria media (STEME) [18] = test: A. Herbicidal pre-emergence efficacy, STEME
Description: as §1, §2, §3

[19] = test system: Echinochloa crus-galli (ECHCG); test: B. Herbicidal post-emergence efficacy, ECHCG; conditions: 1280 g/ha, rated visually after about 3 weeks
Protocol: as §4, §5, §6

Row | Structure (SMILES) | Pre-emergence efficacy against DIGSA ([1]; 1280 g/ha) [%] | Pre-emergence efficacy against POAAN (Poa annua (POAAN) [2]; dosage 320 g/ha) [%] | Pre-emergence efficacy against POAAN (Poa annua (POAAN) [2]; dosage 1280 g/ha) [%] | Pre-emergence efficacy against SETVI (Setaria viridis (SETVI) [4]; dosage 320 g/ha) [%] | Pre-emergence efficacy against SETVI (Setaria viridis (SETVI) [4]; dosage 1280 g/ha) [%] | Post-emergence efficacy against AMARE ([6]; 320 g/ha) [%] | Post-emergence efficacy against AMARE ([6]; 1280 g/ha) [%] | Pre-emergence efficacy against AMARE in % ([7]; 320 g/ha) [%] | Pre-emergence efficacy against AMARE in % ([7]; 1280 g/ha) [%] | Pre-emergence efficacy against KCHSC (Kochia scoparia (KCHSC) [8]; dosage 1280 g/ha) [%] | Post-emergence efficacy against VERPE (Veronica persica (VERPE) [10]; 320 g/ha) [%] | Post-emergence efficacy against VERPE (Veronica persica (VERPE) [10]; 1280 g/ha) [%] | Pre-emergence efficacy against VERPE in % (Veronica persica (VERPE) [11]; 1280 g/ha) [%] | Post-emergence efficacy against STEME (Stellaria media (STEME) [12]; 1280 g/ha) [%] | Post-emergence efficacy against ABUTH in % ([13]; 1280 g/ha) [%] | Pre-emergence efficacy against ECHCG [14] [%] | Post-emergence efficacy against DIGSA in % ([15]; 1280 g/ha) [%] | Post-emergence efficacy against KCHSC in % (Kochia scoparia (KCHSC) [16]) [%] | Post-emergence efficacy against KCHSC (Kochia scoparia (KCHSC) [16]) [%] | Pre-emergence efficacy against STEME (Stellaria media (STEME) [18]; dosage 1280 g/ha) [%] | other results
1 | N#Cc1cc(Cl)cnc1Oc1ccccc1OS(=O)(=O)CCCCl [Example I-59] | 100 | 100 | 100 | 100 | 100 | 90 | 90 | 100 | 100 | 100 | 90 | 90 | 100 | 90 | 90 | 100 | 90 | 90 | 90 | 100 | Pre-emergence efficacy against DIGSA ([1]; 320 g/ha): 100%; Post-emergence efficacy against POAAN (Poa annua (POAAN) [3]): 90%; Pre-emergence efficacy against LOLRI (Lolium rigidum (LOLRI)): 90%; Pre-emergence efficacy against MATIN ([5]; 320 g/ha, scored visually after about 3 weeks vs untreated controls): 90%; Pre-emergence efficacy against MATIN ([5]; pre-emergence, dosage 1280 g/ha): 100%; Post-emergence efficacy against AMARE ([6]; 80 g/ha): 90%; Pre-emergence efficacy against AMARE in % ([7]; 80 g/ha): 100%; Pre-emergence efficacy against KCHSC (Kochia scoparia (KCHSC) [8]; dosage 320 g/ha): 100%; Pre-emergence efficacy against ABUTH [9]: 90%; Post-emergence efficacy against VERPE (Veronica persica (VERPE) [10]; 80 g/ha): 90%; Pre-emergence efficacy against VERPE in % (Veronica persica (VERPE) [11]; 320 g/ha): 90%; Post-emergence efficacy against STEME (Stellaria media (STEME) [12]; 320 g/ha): 90%; Post-emergence efficacy against ABUTH in % ([13]; 320 g/ha): 90%; Post-emergence efficacy against DIGSA in % ([15]; 320 g/ha): 90%; Post-emergence efficacy against SETVI (Setaria viridis (SETVI) [17]): 90%; Pre-emergence efficacy against STEME (Stellaria media (STEME) [18]; dosage 80 g/ha): 90%; Pre-emergence efficacy against STEME (Stellaria media (STEME) [18]; dosage 320 g/ha): 100%
2 | O=S(=O)(CCCC(F)(F)F)Oc1ccccc1Oc1ccc(Cl)cn1 [Example I-26] | 100 | 90 | 100 | 90 | 100 | 90 | 90 | 90 | 100 | 90 | 90 | 90 | 100 | 90 | 90 | 90 | 90 | 90 | 90 | 90 | Post-emergence efficacy against ECHCG in % [19]: 90%
